We go through 13 molecules from EP4733306A1, “NOVEL MODIFIED TRINUCLEOTIDE CAPPING DERIVATIVE, AND MRNA INTO WHICH CAPPING DERIVATIVE IS INTRODUCED” (Elonova Co., Ltd., priority 2023, dated 2025).

Entries after “also recorded” stand apart in the source; their conditions may differ.

One assay deals with HEK 293 cells. The assay can be described thus: Luciferase (antigen protein) expression from capped Luciferase mRNA transfected into HEK 293 cells, luminescence readout. Type of assay: cell-based. On the procedure: HEK 293 cells were cultured in a 60 mL culture plate containing DMEM supplemented with 10% FBS and 1% pen/strep. On the day prior to transfection, the cells were detached using trypsin and resuspended in new medium. The cells were seeded into a 96-well plate. On the next day, when the cells reached 70% confluence, the transfection mixture was prepared and transfection was performed.
The purified mRNA was quantified using a nanodrop spectrophotometer, and the transcription yield for each rNTP combination was compared. For cell transfection, 500 ng of each mRNA was collected and mixed with 5 µL of Opti-MEM. Separately, 0.5 µL of Lipofectamine was mixed with 5 µL of Opti-MEM in another tube and incubated at room temperature for 10 minutes. Then, the mRNA and Lipofectamine mixtures were combined in the same tube and incubated for an additional 5 minutes at room temperature. Finally, the transfection mixture was added to the cells and incubated for 24 hours.
After the incubation period, the medium was removed, and the cells were lysed using 50 µL of 1X lysis buffer. The cell lysate was transferred into microcentrifuge tubes. For luciferase luminescence analysis, 100 µL of luciferin substrate was added to each sample in a 96-well white plate. Then, 20 µL of each cell lysate sample was added and mixed by pipetting. Finally, the luminescence of luciferase was recorded using a luminometer instrument.
HEK 293 cells were cultured in a 60 mL culture plate containing DMEM supplemented with 10% FBS and 1% pen/strep. On the day prior to transfection, the cells were detached using trypsin and resuspended in fresh medium. The cells were then seeded in a 96-well plate. On the following day, when the cells reached 70% confluence, the transfection mixture was prepared and transfection was performed.
After the incubation period, the medium was removed, and the cells were lysed using 50 µL of 1X lysis buffer. The cell lysate was transferred into microcentrifuge tubes. For luciferase luminescence analysis, 100 µL of luciferin substrate was taken for each sample in a 96-well white plate. Then, 20 µL of each cell lysate sample was added and mixed by pipetting. Finally, the luminescence of luciferase was recorded using a luminometer instrument.

The target of the next assay is T7 RNA polymerase (Escherichia phage T7, UniProt P00573). The assay can be described thus: In vitro transcription of Luciferase template with T7 RNA polymerase in the presence of the capping material (gel). In kind it is biochemical. The following applies: compared with CleanCap (cap 1 commercial). The procedure:
The concentration of the luciferase template was measured using a nanodrop spectrophotometer. For each transcription reaction, 100 ng of template in 1 µL was placed into a microcentrifuge tube. Then, 1.5 µL of 10X transcription buffer (400 mM Tris-HCl, 60 mM MgCl2, 10 mM DTT, 20 mM spermidine) and 1.5 µL of 100 mM DTT were added to the tube. rATP, rCTP, and rUTP were each used (1 µL, 10 mM). For cap-dependent transcription of luciferase, rGTP was used (1 µL, 2.5 mM). The ratio of capping material was maintained at four times higher than rGTP so as to provide mRNA capped at ≥80%. Accordingly, 1 µL of capping material (10 mM) was added. RNase inhibitor (0.5 µL, 40 U/µL) and T7 RNA polymerase (1 µL, 50 U/µL) were added. Nuclease-free water (4.5-5.5 µL) was added to bring the final volume of the reaction to 15 µL. In the case of modified rNTPs, 10 mM stock solutions were prepared and the corresponding derivatives were added in place of rCTP and rUTP. The reaction was incubated at 37°C for 1 hour, and after 1 hour, 1.8 µL of 10X DNase I buffer (10 mM Tris-HCl, 2.5 mM MgCl2, 0.5 mM CaCl2) and 1 µL of DNase I (2 U/µL) were added to the reaction and incubated for an additional 15 minutes at 37°C to remove all DNA templates.

[1] abbreviates: Luciferase mRNA capped with the analog, compared with mRNA introduced with ARCA cap (cap 0) and CleanCap (cap 1 commercial), HEK 293.
Where [2] appears, read: Luciferase mRNA capped with the analog, compared with Luciferase mRNA introduced with CleanCap (Luc mRNA Cap1).

Sequence of T7 RNA polymerase (P00573 whole entry): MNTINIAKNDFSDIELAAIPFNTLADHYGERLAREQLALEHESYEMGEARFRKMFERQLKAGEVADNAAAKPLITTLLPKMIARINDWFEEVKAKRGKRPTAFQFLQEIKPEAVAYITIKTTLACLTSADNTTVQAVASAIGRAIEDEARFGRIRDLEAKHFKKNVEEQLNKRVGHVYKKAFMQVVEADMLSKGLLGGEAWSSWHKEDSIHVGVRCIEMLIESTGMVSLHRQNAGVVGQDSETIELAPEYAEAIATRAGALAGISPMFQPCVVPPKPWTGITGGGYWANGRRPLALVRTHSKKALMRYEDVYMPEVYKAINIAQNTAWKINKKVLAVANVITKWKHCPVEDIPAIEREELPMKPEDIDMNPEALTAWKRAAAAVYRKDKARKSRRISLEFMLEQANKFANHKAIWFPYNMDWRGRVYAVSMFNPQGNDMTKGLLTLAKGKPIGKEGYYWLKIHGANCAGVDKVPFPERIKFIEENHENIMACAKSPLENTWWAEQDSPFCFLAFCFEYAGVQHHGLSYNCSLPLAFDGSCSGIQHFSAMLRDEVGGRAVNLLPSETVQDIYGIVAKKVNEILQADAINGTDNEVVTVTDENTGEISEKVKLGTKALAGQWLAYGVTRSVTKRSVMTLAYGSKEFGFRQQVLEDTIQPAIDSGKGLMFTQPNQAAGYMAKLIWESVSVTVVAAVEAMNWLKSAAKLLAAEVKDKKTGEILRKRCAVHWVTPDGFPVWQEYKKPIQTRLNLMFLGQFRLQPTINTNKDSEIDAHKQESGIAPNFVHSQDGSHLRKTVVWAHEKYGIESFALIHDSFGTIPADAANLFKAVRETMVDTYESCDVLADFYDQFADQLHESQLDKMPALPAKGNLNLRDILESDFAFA

With `CO[C@@H]1[C@H](OP(=O)(O)OC[C@H]2O[C@@H](n3cnc4c(=O)[nH]c(N)nc43)[C@H](O)[C@@H]2O)[C@@H](COP(=O)(O)OP(O)(=S)OP(=O)(O)OC[C@H]2O[C@@H](n3c[n+](Cc4ccc(Cl)cc4)c4c(=O)[nH]c(N)nc43)[C@H](O)[C@@H]2O)O[C@H]1n1cnc2c(N)ncnc21` (single isomer, unassigned) [^4-ClBn7GppspAmpG (D1), Guanosine N7-4-Cl-benzyl β-phosphorothioate trinucleotide Cap1], in the assay with HEK 293 cells (setting [1]), the “antigen protein expression efficiency” value is on record as “higher”.
Consider `CO[C@@H]1[C@H](OP(=O)(O)OC[C@H]2O[C@@H](n3cnc4c(=O)[nH]c(N)nc43)[C@H](O)[C@@H]2O)[C@@H](COP(=O)(O)OP(=O)(S)OP(=O)(O)OC[C@H]2O[C@@H](n3c[n+](Cc4ccc(Cl)cc4)c4c([O-])nc(N)nc43)[C@H](O)[C@@H]2O)O[C@H]1n1cnc2c(N)ncnc21` (single isomer, unassigned) [^4-ClBn7GppspAmpG (D2), Guanosine N7-4-Cl-benzyl β-phosphorothioate trinucleotide Cap1], for which, in the assay on HEK 293 cells (setting [1]), the “antigen protein expression efficiency” value is given as “higher”.
Regarding `CO[C@@H]1[C@H](OP(=O)(O)OC[C@H]2O[C@@H](n3cnc4c(=O)[nH]c(N)nc43)[C@H](O)[C@@H]2O)[C@@H](COP(=O)(O)OP(O)(=S)OP(=O)(O)OC[C@H]2O[C@@H](n3c[n+](Cc4ccccc4)c4c(=O)[nH]c(N)nc43)[C@H](O)[C@@H]2O)O[C@H]1n1cnc2c(N)ncnc21` (single isomer, unassigned) [^Bn7GppspAmpG (D1), Guanosine N7-benzyl β-phosphorothioate trinucleotide Cap1], in the assay with HEK 293 cells (setting [1]), the “antigen protein expression efficiency” value is listed as “higher”.
Consider `CO[C@@H]1[C@H](OP(=O)(O)OC[C@H]2O[C@@H](n3cnc4c(=O)[nH]c(N)nc43)[C@H](O)[C@@H]2O)[C@@H](COP(=O)(O)OP(O)(=S)OP(=O)(O)OC[C@H]2O[C@@H](n3c[n+](Cc4ccccc4)c4c(=O)[nH]c(N)nc43)[C@H](O)[C@@H]2O)O[C@H]1n1cnc2c(N)ncnc21` (single isomer, unassigned) [^Bn7GppspAmpG (D2), Guanosine N7-benzyl β-phosphorothioate trinucleotide Cap1], for which the “antigen protein expression efficiency” value with HEK 293 cells (setting [1]) is “higher”.
For the molecule `CO[C@@H]1[C@H](OP(=O)(O)OC[C@H]2O[C@@H](n3cnc4c(=O)[nH]c(N)nc43)[C@H](O)[C@@H]2O)[C@@H](COP(=O)(O)OP(=O)(O)OP(=O)(O)OC[C@H]2O[C@@H](n3c[n+](Cc4ccccc4)c4c(=O)[nH]c(N)nc43)[C@H](O)[C@@H]2O)O[C@H]1n1cnc2c(N)ncnc21` [BzCap1, Guanosine N7-benzyl trinucleotide Cap1], the “antigen protein expression efficiency” value in the assay on HEK 293 cells (setting [2]) is “higher”; in the assay with HEK 293 cells (setting [1]) it was “higher”; in the assay with HEK 293 cells (mRNA using natural rNTPs, compared with CleanCap, HEK 293) it was “more efficient”.
Regarding `CO[C@@H]1[C@H](OP(=O)(O)OC[C@H]2O[C@@H](n3cnc4c(=O)[nH]c(N)nc43)[C@H](O)[C@@H]2O)[C@@H](COP(=O)(O)OP(=O)(O)OP(=O)(O)OC[C@H]2O[C@@H](n3c[n+](Cc4ccccn4)c4c(=O)[nH]c(N)nc43)[C@H](O)[C@@H]2O)O[C@H]1n1cnc2c(N)ncnc21` [PyCap1, Guanosine N7-(pyridin-2-ylmethyl) trinucleotide Cap1 analog], the “antigen protein expression efficiency” value with HEK 293 cells (setting [2]) is on record as “higher”; with HEK 293 cells (compared with CleanCap mRNA (Luc mRNA CAP1), in both mRNA using natural rNTPs and mRNA with pseudouridine triphosphate instead of rUTP, HEK 293, 24 hours), “higher”; with HEK 293 cells (compared with CleanCap mRNA (Luc mRNA CAP1), in both mRNA using natural rNTPs and mRNA with pseudouridine triphosphate instead of rUTP, HEK 293, 24 hours, listed as PyCapl), “more efficient”.
On to `CO[C@@H]1[C@H](OP(=O)(O)OC[C@H]2O[C@@H](n3cnc4c(=O)[nH]c(N)nc43)[C@H](O)[C@@H]2O)[C@@H](COP(=O)(O)OP(=O)(O)OP(=O)(O)OC[C@H]2O[C@@H](n3c[n+](Cc4cccs4)c4c(=O)[nH]c(N)nc43)[C@H](O)[C@@H]2O)O[C@H]1n1cnc2c(N)ncnc21` [ThioCap1, Guanosine N7-(thiophen-2-ylmethyl) trinucleotide Cap1 analog], for which the transcription efficiency entry on T7 RNA polymerase is “similar”. Besides, the “antigen protein expression efficiency” value with HEK 293 cells (setting [2]) is listed as “higher”; in the assay with HEK 293 cells (compared with CleanCap mRNA (Luc mRNA CAP1), in both mRNA using natural rNTPs and mRNA with pseudouridine triphosphate instead of rUTP, HEK 293, 24 hours, listed as ThioCapl), “more efficient; also recorded: higher”.
With `CO[C@@H]1[C@H](OP(=O)(O)OC[C@H]2O[C@@H](n3cnc4c(=O)[nH]c(N)nc43)[C@H](O)[C@@H]2O)[C@@H](COP(=O)(O)OP(=O)(O)OC[C@H]2O[C@@H](n3c[n+](Cc4ccc(Cl)cc4)c4c(=O)[nH]c(N)nc43)[C@H](O)[C@@H]2O)O[C@H]1n1cnc2c(N)ncnc21` [^4-ClBn7GppAmpG, Guanosine N7-4-Cl-benzyl trinucleotide diphosphate Cap1], the “antigen protein expression efficiency” value with HEK 293 cells (setting [1]) was “higher”.
On the same count and under the same terms, as for `CO[C@@H]1[C@H](OP(=O)(O)OC[C@H]2O[C@@H](n3cnc4c(=O)[nH]c(N)nc43)[C@H](O)[C@@H]2O)[C@@H](COP(=O)(O)OP(=O)(O)OP(=O)(O)OC[C@H]2O[C@@H](n3c[n+](Cc4ccc(Cl)cc4)c4c(=O)[nH]c(N)nc43)[C@H](O)[C@@H]2O)O[C@H]1n1cnc2c(N)ncnc21` [^4-ClBn7GpppAmpG, Guanosine N7-4-Cl-benzyl trinucleotide Cap1], the entry is “higher”; as for `CO[C@@H]1[C@H](OP(=O)(O)OC[C@H]2O[C@@H](n3cnc4c(=O)[nH]c(N)nc43)[C@H](O)[C@@H]2O)[C@@H](COP(=O)(O)OP(=O)(O)OC[C@H]2O[C@@H](n3c[n+](Cc4ccccc4)c4c(=O)[nH]c(N)nc43)[C@H](O)[C@@H]2O)O[C@H]1n1cnc2c(N)ncnc21` [^Bn7GppAmpG, Guanosine N7-benzyl trinucleotide diphosphate Cap1], “higher”; as for `CO[C@@H]1[C@H](OP(=O)(O)OC[C@H]2O[C@@H](n3cnc4c(=O)[nH]c(N)nc43)[C@H](O)[C@@H]2O)[C@@H](COP(=O)(O)OP(=O)(O)OP(=O)(O)OC[C@H]2O[C@@H](n3c[n+](Cc4ccccc4)c4c(=O)[nH]c(N)nc43)[C@H](O)[C@@H]2O)O[C@H]1n1cnc2c(NCc3ccccc3)ncnc21` [^Bn7Gppp^Bn6AmpG, Guanosine N^7, adenosine N^6-dibenzyl trinucleotide Cap1], “higher”.
Consider `CO[C@@H]1[C@H](OP(=O)(O)OC[C@H]2O[C@@H](n3cnc4c(=O)[nH]c(N)nc43)[C@H](O)[C@@H]2O)[C@@H](COP(=O)(O)OP(=O)(O)OP(=O)(O)OC[C@H]2O[C@@H](n3c[n+](Cc4ccccc4)c4c(=O)[nH]cnc43)[C@H](O)[C@@H]2O)O[C@H]1n1cnc2c(N)ncnc21` [^Bn7IpppAmpG, Inosine N7-benzyl trinucleotide Cap1], for which the “antigen protein expression efficiency” value with HEK 293 cells (setting [1]) is listed as “higher”.
With “L-Guanosine N7-benzyl trinucleotide Cap1 [^Bn7LGpppAmpG]”, the “antigen protein expression efficiency” value in the assay on HEK 293 cells (setting [1]) is “higher”.
